Measurements from patent US7371536B2, “Methods for transporting vitamin C” (priority 1999, dated 2008).

Experiments:
Format in all cases: cell-based
rat SVCT1 [1] = target: T1, rat SVCT1 (Rattus norvegicus, UniProt Q9WTW7); test: L-[14C]ascorbic acid radiotracer uptake in Xenopus oocytes expressing rat SVCT1
T1 construct: expressed in transfected cells; host or cells: Xenopus laevis oocytes injected with cRNA
Description: (§1) Rat SVCT1 and SVCT2 clones were obtained by isolating SVCT1 cDNA from rat kidney by expression cloning as described in Hediger et al., Methods Enzymol. 296:17-52 (1998). The SVCT2 cDNA was subsequently isolated by PCR-based homology screening of a rat brain cDNA library. A 2.5-kb rabbit cDNA with 96% identity to residues 96-505 of the rat SVCT2 was obtained by RT-PCR. Radiotracer and voltage-clamp experiments were performed (at 22° C.) in Xenopus oocytes two to seven days after injection with ˜25 ng of SVCT1 or SVCT2 cRNA synthesized in vitro. Radiotracer uptake was determined by incubating 6-10 oocytes for 30 or 60 min in standard 100 mM Na^+ or Na^+-free media with 10-600 μM L-[^14C]ascorbic acid.
(§2) Functional characterization of SVCT1 and SVCT2 in Xenopus oocytes—Oocytes were isolated from Xenopus laevis (under 2-aminoethylbenzoate anaesthesia), treated with collagenase A and stored at 18° C. in modified Barths' medium. Oocytes were injected with ≈25 ng of SVCT1 or SVCT2 cRNA synthesized in vitro, or water only (control), and incubated 2-7 days before radiotracer or voltage-clamp experiments were performed. Standard Na^+ uptake medium comprised 100 mM NaCl, 2 mM KCl, 1 mM CaCl2, 1 mM MgCl2, 10 mM HEPES (pH 7.5 with Tris base). For Na^+-free or low-Na^+ media, NaCl was replaced by equimolar choline chloride; likewise, Cl^− was replaced by gluconate for Cl^−-free medium. For pH-sensitivity experiments, Na^+ media were buffered at pH 5.5-8.0 using 0-5 mM MES, 0-5 mM HEPES and 0-5 mM Tris base. L-Ascorbic acid-containing solutions were freshly-prepared (without dithiothreitol) and used immediately.
(§3) Radiotracer uptake was determined by incubating 6-10 oocytes for 30 or 60 min in standard Na^+ or Na^+-free media (at 22° C.) with 10-600 μM L-[1-^14C]ascorbic acid (final specific activity 0.3 GBq/mmol). Oocytes were solubilized with 10% SDS and [^14C]-content was measured by liquid scintillation counting. A two-microelectrode voltage-clamp was used to measure currents in control oocytes and oocytes injected with rat SVCT1 or rat SVCT2 cRNA. Microelectrodes (resistance 0.5-5 MΩ) were filled with 3 M KCl. Oocytes were superfused at 22° C. in standard Na^+ medium and clamped at a holding potential (Vh) of −50 mV. For continuous current monitoring at Vh=−50 mV, the current was low-pass filtered at 20 Hz (sampling at 1 Hz). Additionally, step-changes in membrane potential (Vm) were applied (from +50 mV to −150 mV in 20-mV increments), each for a duration of 100 ms, before and after the addition of substrate; current was low-pass filtered at 500 Hz and digitized at 5 kHz. Test solutions were always washed out with substrate-free medium (100 mM choline chloride) at pH 7.5 for several minutes. Steady-state data (obtained by averaging the points over the final 16.7 ms at each Vm step when step-changes were applied) were fitted to equation (1) below, for which I is the evoked current (i.e., the difference in steady-state current measured in the presence and absence of substrate), Imax the derived current maximum, S the concentration of substrate S (Na^+ or L-ascorbic acid),
(§4) [formula] the substrate concentration at which current was half-maximal, and nH the Hill coefficient for S. (For radiotracer experiments, I was replaced with velocity V and Imax replaced with the derived maximal velocity, Vmax.)

rat SVCT2 = target: T2, rat SVCT2 (Rattus norvegicus, UniProt Q9WTW8); test: L-[14C]ascorbic acid radiotracer uptake in Xenopus oocytes expressing rat SVCT2
T2 construct: expressed in transfected cells; host or cells: Xenopus laevis oocytes injected with cRNA (vector pTLN2)
T2 sequence (Q9WTW8 whole entry): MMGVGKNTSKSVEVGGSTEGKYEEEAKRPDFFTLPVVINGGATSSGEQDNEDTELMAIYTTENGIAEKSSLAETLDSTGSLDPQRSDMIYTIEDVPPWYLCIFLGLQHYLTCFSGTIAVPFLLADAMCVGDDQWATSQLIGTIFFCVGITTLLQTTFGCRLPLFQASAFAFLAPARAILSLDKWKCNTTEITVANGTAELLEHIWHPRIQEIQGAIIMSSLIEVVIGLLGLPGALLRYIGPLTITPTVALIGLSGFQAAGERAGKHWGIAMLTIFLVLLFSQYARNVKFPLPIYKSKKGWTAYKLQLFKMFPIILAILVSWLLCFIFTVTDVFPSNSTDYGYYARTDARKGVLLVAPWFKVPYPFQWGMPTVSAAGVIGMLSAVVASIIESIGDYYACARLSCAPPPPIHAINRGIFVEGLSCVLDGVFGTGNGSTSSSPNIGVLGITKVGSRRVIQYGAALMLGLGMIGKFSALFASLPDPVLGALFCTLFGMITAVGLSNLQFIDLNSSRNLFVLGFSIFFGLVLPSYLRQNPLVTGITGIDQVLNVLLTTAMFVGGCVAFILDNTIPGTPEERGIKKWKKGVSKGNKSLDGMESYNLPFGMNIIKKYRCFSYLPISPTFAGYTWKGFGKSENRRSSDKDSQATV
Description: as §1, §2
as §3, with “Additionally, step-changes in membrane potential (Vm) were applied (from +50 mV to −150 mV in 20-mV increments), each for a duration of 100 ms, before and after the addition of substrate; current was low-pass filtered at 500 Hz and digitized at 5 kHz. Test solutions were always washed out with substrate-free medium (100 mM choline chloride) at pH 7.5 for several minutes.” left out, “acid), […]” for “acid),”

rat SVCT1 [2] = target: T1, rat SVCT1; test: Two-microelectrode voltage-clamp of Xenopus oocytes expressing rat SVCT1; conditions: for evoked current / substrate selectivity (in words): oocytes expressing SVCT1
Description: as §1, with “A 2.5-kb rabbit cDNA with 96% identity to residues 96-505 of the rat SVCT2 was obtained by RT-PCR.” left out
as §2, §3, §4

human SVCT1 [3] = target: T3, human SVCT1 (Homo sapiens, UniProt Q9UHI7); test: L-[14C]ascorbic acid radiotracer uptake in Xenopus oocytes expressing human SVCT1; conditions: data not shown
T3 construct: expressed in transfected cells; host or cells: Xenopus laevis oocytes injected with cRNA (vector pTLN2)
T3 sequence (Q9UHI7 whole entry): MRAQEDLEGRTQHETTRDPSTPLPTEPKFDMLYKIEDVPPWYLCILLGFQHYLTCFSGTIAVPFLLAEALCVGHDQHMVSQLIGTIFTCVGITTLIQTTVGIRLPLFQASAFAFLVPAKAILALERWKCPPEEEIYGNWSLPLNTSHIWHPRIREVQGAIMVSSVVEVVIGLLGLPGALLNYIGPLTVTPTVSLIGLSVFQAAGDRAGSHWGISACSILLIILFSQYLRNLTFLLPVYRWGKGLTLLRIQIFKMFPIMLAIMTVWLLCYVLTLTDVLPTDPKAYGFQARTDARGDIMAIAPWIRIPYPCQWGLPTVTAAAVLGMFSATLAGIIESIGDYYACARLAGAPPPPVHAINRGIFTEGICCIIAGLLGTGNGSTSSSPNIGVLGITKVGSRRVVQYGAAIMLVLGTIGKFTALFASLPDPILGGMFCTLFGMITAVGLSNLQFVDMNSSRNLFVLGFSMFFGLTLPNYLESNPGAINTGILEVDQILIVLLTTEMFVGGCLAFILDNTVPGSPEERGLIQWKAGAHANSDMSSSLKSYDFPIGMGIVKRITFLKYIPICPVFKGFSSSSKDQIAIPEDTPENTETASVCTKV
Description: Functional characterization in Xenopus oocytes—SVCT1 and SVCT2 cDNAs were subcloned into the pTLN2 vector (to improve functional expression in oocytes) and used for cRNA synthesis in vitro using the MEGAscript kit and T7 RNA polymerase (from Ambion). Oocytes were isolated from Xenopus laevis, treated with collagenase A and maintained at 18° C. in modified Barths' medium. Oocytes were injected with 15 ng SVCT1 or SVCT2 cRNA or water only. The radiotracer uptake and voltage-clamp experiments described below were conducted 2-5 days post-injection in standard medium of composition 100 mM NaCl, 2 mM KCl, 1 mM CaCl2, 1 mM MgCl2, and 10 mM HEPES (buffered to pH 7.5 with Tris base). For low-Na^+ or Na^+-free media, NaCl was replaced with choline chloride. For pH-dependence experiments, Na^+ media were buffered to between pH 5.5 and pH 8.0 using 0-5 mM MES, 0-5 mM HEPES and 0-5 mM Tris base. L-Ascorbic acid-containing solutions were always freshly prepared and used immediately. […] Oocytes were solubilized with 10% SDS and carbon-14 content measured by liquid scintillation counting. A two-microelectrode voltage-clamp was used to measure currents associated with SVCT1 expressed in oocytes. Oocytes were superfused at 22° C. in standard Na^+ medium and clamped at −50 mV. Current was continuously monitored by sampling at 1 Hz. Test solutions were always washed out with substrate-free, Na^+-free medium at pH 7.5 for several minutes. Once again, saturation kinetics data were fit to a modified Hill equation in which I and Imax were replaced by uptake V and maximal velocity Vmax for analysis of radiotracer uptake data.

human SVCT1 [4] = target: T3, human SVCT1; test: Two-microelectrode voltage-clamp of Xenopus oocytes expressing human SVCT1; conditions: for transport / substrate selectivity (in words): 500 μM, −50 mV
Description: Functional characterization in Xenopus oocytes—SVCT1 and SVCT2 cDNAs were subcloned into the pTLN2 vector (to improve functional expression in oocytes) and used for cRNA synthesis in vitro using the MEGAscript kit and T7 RNA polymerase (from Ambion). Oocytes were isolated from Xenopus laevis, treated with collagenase A and maintained at 18° C. in modified Barths' medium. Oocytes were injected with 15 ng SVCT1 or SVCT2 cRNA or water only. The radiotracer uptake and voltage-clamp experiments described below were conducted 2-5 days post-injection in standard medium of composition 100 mM NaCl, 2 mM KCl, 1 mM CaCl2, 1 mM MgCl2, and 10 mM HEPES (buffered to pH 7.5 with Tris base). For low-Na^+ or Na^+-free media, NaCl was replaced with choline chloride. For pH-dependence experiments, Na^+ media were buffered to between pH 5.5 and pH 8.0 using 0-5 mM MES, 0-5 mM HEPES and 0-5 mM Tris base. L-Ascorbic acid-containing solutions were always freshly prepared and used immediately. Radiotracer uptake was determined by incubating 8-12 oocytes for 30 min (within the time-course of linear uptake) in standard Na^+, low-Na^+ or Na^+-free media with 10-500 μM L-[1-^14C]ascorbic acid (final specific activity ≈0.3 GBq/mmol). Oocytes were solubilized with 10% SDS and carbon-14 content measured by liquid scintillation counting. A two-microelectrode voltage-clamp was used to measure currents associated with SVCT1 expressed in oocytes. Oocytes were superfused at 22° C. in standard Na^+ medium and clamped at −50 mV. Current was continuously monitored by sampling at 1 Hz. Test solutions were always washed out with substrate-free, Na^+-free medium at pH 7.5 for several minutes. Once again, saturation kinetics data were fit to a modified Hill equation in which I and Imax were replaced by uptake V and maximal velocity Vmax for analysis of radiotracer uptake data.

T1 sequence (Q9WTW7 whole entry): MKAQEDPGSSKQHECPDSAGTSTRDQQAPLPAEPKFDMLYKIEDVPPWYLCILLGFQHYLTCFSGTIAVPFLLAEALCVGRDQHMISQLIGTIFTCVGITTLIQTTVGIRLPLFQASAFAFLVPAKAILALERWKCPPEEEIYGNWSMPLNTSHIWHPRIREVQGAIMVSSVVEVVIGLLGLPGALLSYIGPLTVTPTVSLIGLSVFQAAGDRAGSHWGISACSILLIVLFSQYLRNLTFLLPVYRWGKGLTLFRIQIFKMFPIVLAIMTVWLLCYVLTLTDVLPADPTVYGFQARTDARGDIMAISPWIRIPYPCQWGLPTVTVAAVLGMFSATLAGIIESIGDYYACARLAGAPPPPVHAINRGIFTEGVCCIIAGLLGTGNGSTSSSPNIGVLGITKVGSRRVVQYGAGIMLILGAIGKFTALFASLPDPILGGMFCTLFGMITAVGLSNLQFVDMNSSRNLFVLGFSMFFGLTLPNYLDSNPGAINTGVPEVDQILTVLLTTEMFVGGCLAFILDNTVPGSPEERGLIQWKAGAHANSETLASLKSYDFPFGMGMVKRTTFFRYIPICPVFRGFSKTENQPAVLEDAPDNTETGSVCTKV

| Compound | inhibition of SVCT1-mediated L-[14C]ascorbic acid uptake (in words) (rat SVCT1 [1]) | inhibition of SVCT2-mediated L-[14C]ascorbic acid uptake (in words) (rat SVCT2) | evoked current / substrate selectivity (in words) (rat SVCT1 [2]) | inhibition of L-[14C]ascorbic acid uptake (in words) (human SVCT1 [3]) | transport / substrate selectivity (in words) (human SVCT1 [4]) | further results |
| --- | --- | --- | --- | --- | --- | --- |
| O=c1[nH]c(=O)c2[nH]cnc2[nH]1 [xanthine] | modest inhibition | modest inhibition | tiny outward currents | – | – | – |
| CC(=O)Oc1ccccc1C(=O)O [aspirin, acetyl-salicylic acid] | modest inhibition | modest inhibition | tiny outward currents | not significantly inhibited | – | – |
| O=C(CCc1ccc(O)cc1)c1c(O)cc(O)cc1O[C@@H]1O[C@H](CO)[C@@H](O)[C@H](O)[C@H]1O [phlorizin] | modest inhibition | modest inhibition | tiny outward currents | – | – | – |
| O=C(CCc1ccc(O)cc1)c1c(O)cc(O)cc1O [phloretin] | inhibited | inhibited | sizable outward current | – | – | inhibition of L-[14C]ascorbic acid uptake (human SVCT1 [3]): ≈ 80%; mode of inhibition of L-[14C]ascorbic acid uptake (rat SVCT1 [1]; Dixon analysis): non-competitive inhibitor; Ki (rat SVCT1 [1]; FIG. 4I, read-out: Ki, Dixon analysis of L-[14C]ascorbic acid uptake): ~65 µM; inhibition of the L-ascorbic acid-evoked current (in words) (human SVCT1 [4]; FIG. 8A, 100 μM phloretin): potent inhibitor; block of the Na^+ leak current (in words) (human SVCT1 [4]; absence of L-ascorbic acid or other substrate): blocked; block of the inward current evoked by L-ascorbic acid (rat SVCT1 [2]; FIG. 4H): blocked; Ki (rat SVCT1 [2]; uniport mode, absence of L-ascorbic acid, read-out: apparent Ki, inhibition of the Na^+ leak current): ~100 µM |
| O=C[C@H](O)[C@@H](O)[C@H](O)[C@H](O)CO [D-glucose] | – | – | excluded | not significantly inhibited | excluded | – |
| O=C1O[C@H]([C@@H](O)CO)[C@H](O)[C@@H]1O [L-gulono-γ-lactone] | – | – | excluded | – | excluded | – |
